For experiment [1], the system named is transgenic C. elegans strain CL2659. The experiment in a line: β-amyloid test system: delay of paralysis in transgenic C. elegans strain CL2659 (Alzheimer testing). Type of experiment: in vivo, Caenorhabditis elegans. To be noted: CL2659 stage L3 larvae, 48 hours, tested at 1 mg/ml, 100 μg/ml, 10 μg/ml, — = no effect even at 1 mg/ml; for minimal effective concentration: Caenorhabditis elegans, read-out: Alzheimer: concentration range in which a delay in paralysis was observed. The method, then:
For this purpose, stage L3 worm larvae were used at a density of 10-20 worms per well. The expression of β-amyloid in the muscle cells was induced by increasing the temperature, and the associated paralysis was recorded at regular intervals until the end of the test after 48 hours.
(§1) For this purpose, the above substances were tested at concentrations of 1 mg/ml, 100 μg/ml, and 10 μg/ml in comparison with quercetin as a […] control.

The test system of experiment [2] is transgenic C. elegans strain NL5901. As to the kind of experiment: α-synuclein test system: reduction of α-synuclein-GFP expression in transgenic C. elegans strain NL5901 (Parkinson testing). Type of experiment: in vivo, Caenorhabditis elegans. The note with it: NL5901, GFP readout 24 to 48 hours, tested at 1 mg/ml, 100 μg/ml, 10 μg/ml, — = no effect even at 1 mg/ml; for minimal effective concentration: Caenorhabditis elegans, read-out: Parkinson: concentration range in which a reduction in α-synuclein expression was detectable. The method, then: (§2) The same substances as above were tested in a 96-well procedure in the initially mentioned screening assay using the nematode Caenorhabditis elegans (Pretsch et al., see above) in a standardized α-synuclein test system using the transgenic C. elegans strain NL5901 for their potential suitability as an agent for treating Parkinson's disease. This worm strain expresses human α-synuclein bound to green fluorescent protein (GFP) in all muscle cells. GFP labeling allows a direct detection of expressed protein levels using a multiplate reader for 24 to 48 hours.
(§3) For this purpose, the substances were again tested at concentrations of 1 mg/ml, 100 μg/ml, and 10 μg/ml, but this time in comparison to the initially mentioned Parkinson therapeutic agent levodopa as a control.

Experiment [3] concerns Caenorhabditis elegans. The experiment in a line: C. elegans nematode assay, overall rating over the Alzheimer and Parkinson tests. The format is in vivo. To be noted: for minimal effective concentration: Caenorhabditis elegans, read-out: Score. The method, then:
The substances (1) to (41) and (101) to (108), prepared in the above synthesis examples or purchased, were tested for their potential suitability as an agent for treating Alzheimer's disease in a 96-well procedure in the initially mentioned screening assay using the nematode Caenorhabditis elegans (Pretsch et al., see above) in a standardized β-amyloid test system using the transgenic C. elegans strain CL2659. For this purpose, stage L3 worm larvae were used at a density of 10-20 worms per well. The expression of β-amyloid in the muscle cells was induced by increasing the temperature, and the associated paralysis was recorded at regular intervals until the end of the test after 48 hours.
as §1, §2, §3

[4] abbreviates: rating from the effective concentration in both tests.

The structures appear in SMILES notation. Read-outs that look alike come from different tables or passages of the source.

For the compound `O=C(O)CC(=O)O` [(1), malonic acid], the minimal effective concentration in experiment [1], in experiment [2] and in experiment [3] (setting [4]) was > 100 µg/mL each time. The “concentration from which the compound was effective” value in experiment [3] (both tests) was > 100 µg/mL. As to `NC(=O)CC(N)=O` [(2), malonic acid diamide], the figures for the minimal effective concentration in experiment [1], in experiment [2] and in experiment [3] (setting [4]) were > 10 µg/mL, > 10 µg/mL and 10 to 100 µg/mL, respectively.

`O=C([O-])CC(=O)[O-].[Na+].[Na+]` [(3), disodium malonate]: the “Alzheimer: concentration range in which a delay in paralysis was observed” value in experiment [1] was >10 µg/mL. Also, in experiment [2], the “Parkinson: concentration range in which a reduction in α-synuclein expression was detectable” value is >10 µg/mL. For the same compound, in experiment [3] (setting [4]), the Score result was “++ (a compound that is already effective at a concentration >10 μg/ml and therefore rated “++”)”.

For the compound `COC(=O)CC(=O)OC` [(4), malonic acid dimethyl ester], the values for the minimal effective concentration in experiment [1], in experiment [2] and in experiment [3] (setting [4]) were > 10 µg/mL, > 10 µg/mL and 10 to 100 µg/mL, respectively. As to `COC(=O)CC(=O)[O-].[K+]` [(5), malonic acid methyl ester potassium salt], the minimal effective concentration in experiment [3] lay in the range of 10 to 100 µg/mL. Take `COC(=O)CC(N)=O` [(6), malonic acid methyl ester amide]: the “Alzheimer: concentration range in which a delay in paralysis was observed” value in experiment [1] was >100 µg/mL. For the same compound, the “Parkinson: concentration range in which a reduction in α-synuclein expression was detectable” value in experiment [2] was >100 µg/mL. Besides, in experiment [3] (setting [4]), the Score result was “+ (a compound that is only effective above 100 μg/ml and therefore rated “+”)”. In the case of `NCCCNC(=O)CC(=O)O` [(7), N-(3-aminopropyl)malonic acid amide], the minimal effective concentration in experiment [1], in experiment [2] and in experiment [3] (setting [4]) was > 100 µg/mL in each case. Turning to `CCOC(=O)CC(=O)OC12CC3CC(CC(C3)C1)C2` [(9), malonic acid adamantan-1-yl ethyl ester], the minimal effective concentration in experiment [1] is > 10 µg/mL; in experiment [2] it was > 10 µg/mL; in experiment [3] (setting [4]) it was 10 to 100 µg/mL. `O=C(O)CC(=O)OC12CC3CC(CC(C3)C1)C2` [(10), malonic acid adamantan-1-yl ester N-(3-aminopropyl)amide]: the minimal effective concentration in experiment [1] is > 10 µg/mL; in experiment [2], > 10 µg/mL; in experiment [3] (setting [4]) it was 10 to 100 µg/mL. Take `CN(CCCN)C(=O)CC(=O)OC12CC3CC(CC(C3)C1)C2` [(11), malonic acid adamantan-1-yl ester N-(3-aminopropyl)-N-methylamide]: the minimal effective concentration in experiment [1] was > 10 µg/mL; in experiment [2], > 10 µg/mL; in experiment [3] (setting [4]) it was 10 to 100 µg/mL.

In the case of `O=C(CC(=O)N1CCNCC1)OC12CC3CC(CC(C3)C1)C2` [(12), malonic acid adamantan-1-yl ester piperazine amide], in experiment [3], the minimal effective concentration is 10 to 100 µg/mL. As for `NCCCC(=O)N1CCN(C(=O)CC(=O)OC23CC4CC(CC(C4)C2)C3)CC1` [(13), malonic acid adamantan-1-yl ester 4-(4-aminobutyryl)piperazine amide], the results for the minimal effective concentration in experiment [1], in experiment [2] and in experiment [3] (setting [4]) were > 10 µg/mL, > 10 µg/mL and 10 to 100 µg/mL, respectively. For the compound `NC1CCN(C(=O)CC(=O)OC23CC4CC(CC(C4)C2)C3)CC1` [(14), malonic acid adamantan-1-yl ester 4-aminopiperidine amide], the minimal effective concentration in experiment [1] was > 10 µg/mL; in experiment [2] it was > 10 µg/mL; in experiment [3] (setting [4]), 10 to 100 µg/mL. `NCCCC(=O)NC1CCN(C(=O)CC(=O)OC23CC4CC(CC(C4)C2)C3)CC1` [(15), malonic acid adamantan-1-yl ester (4-(4-aminobutyryl)amino)piperidine amide]: the minimal effective concentration in experiment [1] was > 10 µg/mL; in experiment [2], > 10 µg/mL; in experiment [3] (setting [4]) it was 10 to 100 µg/mL. As to `NCCCNC(=O)CC(=O)N1CCOCC1` [(22), N-(3-aminopropyl)-N′-morpholine malonic acid diamide], in experiment [3], the minimal effective concentration was in the range of 10 to 100 µg/mL. Consider `NCCCNC(=O)CC(=O)N1CCCCC1` [(23), N-(3-aminopropyl)-N′-piperidine malonic acid diamide], for which the minimal effective concentration in experiment [3] was 10 to 100 µg/mL.

Take `O=C(CC(=O)N1CCN(Cc2cccc(C(F)(F)F)c2)CC1)OC12CC3CC(CC(C3)C1)C2` [(29), malonic acid adamantan-1-yl ester 4-(3-trifluoromethylbenzyl)piperazine amide]: the minimal effective concentration in experiment [3] lay within 10 to 100 µg/mL. As for `O=C(CC(=O)N1CCN(Cc2cccc(F)c2)CC1)OC12CC3CC(CC(C3)C1)C2` [(30), malonic acid adamantan-1-yl ester 4-(3-fluorobenzyl)piperazine amide], in experiment [3], the minimal effective concentration is 10 to 100 µg/mL.

`COc1ccccc1N1CCN(C(=O)CC(=O)OC23CC4CC(CC(C4)C2)C3)CC1` [(31), malonic acid adamantan-1-yl ester 4-(2-methoxyphenyl)piperazine amide]: in experiment [3], the minimal effective concentration is 10 to 100 µg/mL. `CC12CC3CC(C)(C1)CC(NC(=O)CC(=O)N1CCNCC1)(C3)C2` [(35), N-(3,5-dimethyladamantan-1-yl)-N′-piperazine malonic acid diamide]: in experiment [3], the minimal effective concentration lay within 10 to 100 µg/mL.

Take `CC12CC3CC(C)(C1)CC(NC(=O)CC(=O)N1CCN(Cc4cccc(C(F)(F)F)c4)CC1)(C3)C2` [(36), N-(3,5-dimethyladamantan-1-yl)-N′-4-(3-trifluoromethylbenzyl)piperazine malonic acid diamide]: in experiment [3], the minimal effective concentration was in the range of 10 to 100 µg/mL. Still for that read-out and setting: then `CC12CC3CC(C)(C1)CC(NC(=O)CC(=O)N1CCN(Cc4cccc(F)c4)CC1)(C3)C2` [(37), N-(3,5-dimethyladamantan-1-yl)-N′-4-(3-fluorobenzyl)piperazine malonic acid diamide], with 10 to 100 µg/mL; and `COc1ccc(N2CCN(C(=O)CC(=O)NC34CC5CC(C)(CC(C)(C5)C3)C4)CC2)cc1` [(39), N-(3,5-dimethyladamantan-1-yl)-N′-4-(4-methoxyphenyl)piperazine malonic acid diamide], with 10 to 100 µg/mL. For `COc1ccc(N2CCN(C(=O)CC(=O)NC34CC5CC(C)(CC(C)(C5)C3)C4)CC2)c(OC)c1` [(40), N-(3,5-dimethyladamantan-1-yl)-N′-4-(2,4-dimethoxyphenyl)piperazine malonic acid diamide], the minimal effective concentration in experiment [3] is 10 to 100 µg/mL.

Take `CC(C)(C(=O)O)C(=O)O` [(101), Dimethyl malonic acid, reference compound]: the “efficacy in the C. elegans assay” value in experiment [3] (both tests) is “neither dimethyl malonic acid (101) nor dimethyl malonic acid dimethyl ester (102) proved to be effective”. The Score result in experiment [3] (setting [4]) is “−”.

With `COC(=O)C(C)C(=O)OC` [(102), Methyl malonic acid dimethyl ester, reference compound], the “efficacy in the C. elegans assay” value in experiment [3] (both tests) was “neither dimethyl malonic acid (101) nor dimethyl malonic acid dimethyl ester (102) proved to be effective”. Besides, the Score entry in experiment [3] (setting [4]) is given as “−”. Turning to `NCCCNC(=O)C12CC3CC(CC(C3)C1)C2` [(103), 1-Adamantane carboxylic acid-N-(3-aminopropyl)amide, reference compound], in experiment [3] (setting [4]), the Score entry is “−”. As to `CC(C)(C)OC(=O)NCCCN` [(104), 3-Aminopropyl carbamic acid tert-butyl ester, reference compound], the Score entry in experiment [3] (setting [4]) is on record as “−”. As to `CNCCCNC(=O)OC(C)(C)C` [(105), 3-(Methylamino)propyl carbamic acid tert-butyl ester, reference compound], the Score entry in experiment [3] (setting [4]) is given as “−”. The same measure, in the same setting: then `OC12CC3CC(CC(C3)C1)C2` [(106), 1-Adamantanol, reference compound], with “−”; and `NC12CC3CC(CC(C3)C1)C2` [(107), 1-Adamantanamine, reference compound], with “−”. `NCCCNC(=O)CC(=O)N1CCCc2ccccc21` [(108), N-(3-aminopropyl)-N′-tetrahydroquinoline malonic acid diamide]: the “efficacy in the C. elegans assay” value in experiment [3] (both tests) is “ineffectiveness”. In addition, in experiment [3] (setting [4]), the Score entry is on record as “−”.

Source of the values: patent publication US20260174721A1, “AGENT FOR RESTORING METAL HOMEOSTASIS” (Oxford Antibiotic Group GmbH, priority 2022, published 2026).
